Experiments:
[1] = system: Mus musculus; test: Biodistribution of [123I]- labeled compound in mice heart was determined after 30 sec of administration; expressed in percent of injected dose per gram of organ; format: ADME, organism-based; settings: in vivo, 0.5 min
[2] = system: Mus musculus; test: Biodistribution of [123I]- labeled compound in mice heart was determined after 5 min of administration; expressed in percent of injected dose per gram of organ; format: ADME, organism-based; settings: in vivo
[3] = system: Mus musculus; test: Biodistribution of [123I]- labeled compound in mice kidneys was determined after 1 min of administration; expressed in percent of injected dose per gram of organ; format: ADME, organism-based, Kidney; settings: in vivo
[4] = system: Mus musculus; test: Biodistribution of [123I]- labeled compound in mice kidneys was determined after 10 min of administration; expressed in percent of injected dose per gram of organ; format: ADME, organism-based, Kidney; settings: in vivo
[5] = system: Mus musculus; test: Biodistribution of [123I]- labeled compound in mice lungs was determined after 15 sec of administration; expressed in percent of injected dose per gram of organ; format: ADME, organism-based, Lung; settings: in vivo, 15 s
[6] = system: Mus musculus; test: Biodistribution of [123I]- labeled compound in mice lungs was determined after 2 min of administration; expressed in percent of injected dose per gram of organ; format: ADME, organism-based, Lung; settings: in vivo
[7] = system: Mus musculus; test: Biodistribution of [123I]- labeled compound in mice lungs was determined after 30 sec of administration; expressed in percent of injected dose per gram of organ; format: ADME, organism-based, Lung; settings: in vivo, 0.5 min
[8] = system: Mus musculus; test: Biodistribution of [123I]- labeled compound in mice lungs was determined after 5 min of administration; expressed in percent of injected dose per gram of organ; format: ADME, organism-based, Lung; settings: in vivo
[9] = system: Mus musculus; test: Biodistribution of [123I]- labeled compound in mice kidneys was determined after 15 sec of administration; expressed in percent of injected dose per gram of organ; format: ADME, organism-based, Kidney; settings: in vivo, 15 s
[10] = system: Mus musculus; test: Biodistribution of [123I]- labeled compound in mice kidneys was determined after 2 min of administration; expressed in percent of injected dose per gram of organ; format: ADME, organism-based, Kidney; settings: in vivo
[11] = system: Mus musculus; test: Biodistribution of [123I]- labeled compound in mice kidneys was determined after 30 sec of administration; expressed in percent of injected dose per gram of organ; format: ADME, organism-based, Kidney; settings: in vivo, 0.5 min
[12] = system: Mus musculus; test: Biodistribution of [123I]- labeled compound in mice kidneys was determined after 5 min of administration; expressed in percent of injected dose per gram of organ; format: ADME, organism-based, Kidney; settings: in vivo
[13] = system: Mus musculus; test: Biodistribution of [123I]- labeled compound in mice liver was determined after 1 min of administration; expressed in percent of injected dose per gram of organ; format: ADME, organism-based; settings: in vivo
[14] = system: Mus musculus; test: Biodistribution of [123I]- labeled compound in mice liver was determined after 10 min of administration; expressed in percent of injected dose per gram of organ; format: ADME, organism-based; settings: in vivo
[15] = system: Mus musculus; test: Biodistribution of [123I]- labeled compound in mice liver was determined after 15 sec of administration; expressed in percent of injected dose per gram of organ; format: ADME, organism-based; settings: in vivo, 15 s
[16] = system: Mus musculus; test: Biodistribution of [123I]- labeled compound in mice liver was determined after 2 min of administration; expressed in percent of injected dose per gram of organ; format: ADME, organism-based; settings: in vivo
[17] = system: Mus musculus; test: Biodistribution of [123I]- labeled compound in mice liver was determined after 30 sec of administration; expressed in percent of injected dose per gram of organ; format: ADME, organism-based; settings: in vivo, 0.5 min
[18] = system: Mus musculus; test: Biodistribution of [123I]- labeled compound in mice lungs was determined after 1 min of administration; expressed in percent of injected dose per gram of organ; format: ADME, organism-based, Lung; settings: in vivo
[19] = system: Mus musculus; test: Biodistribution of [123I]- labeled compound in mice lungs was determined after 10 min of administration; expressed in percent of injected dose per gram of organ; format: ADME, organism-based, Lung; settings: in vivo
[20] = system: Mus musculus; test: Biodistribution of [123I]- labeled compound in mice brain was determined after 1 min of administration; expressed in percent of injected dose per gram of organ; format: ADME, organism-based; settings: in vivo
[21] = system: Mus musculus; test: Biodistribution of [123I]- labeled compound in mice brain was determined after 10 min of administration; expressed in percent of injected dose per gram of organ; format: ADME, organism-based; settings: in vivo
[22] = system: Mus musculus; test: Biodistribution of [123I]- labeled compound in mice brain was determined after 2 min of administration; expressed in percent of injected dose per gram of organ; format: ADME, organism-based; settings: in vivo
[23] = system: Mus musculus; test: Biodistribution of [123I]- labeled compound in mice brain was determined after 30 sec of administration; expressed in percent of injected dose per gram of organ; format: ADME, organism-based; settings: in vivo, 0.5 min
[24] = system: Mus musculus; test: Biodistribution of [123I]- labeled compound in mice brain was determined after 5 min of administration; expressed in percent of injected dose per gram of organ; format: ADME, organism-based; settings: in vivo
[25] = system: Mus musculus; test: Biodistribution of [123I]- labeled compound in mice heart was determined after 10 min of administration; expressed in percent of injected dose per gram of organ; format: ADME, organism-based; settings: in vivo
[26] = system: Mus musculus; test: Biodistribution of [123I]- labeled compound in mice heart was determined after 15 sec of administration; expressed in percent of injected dose per gram of organ; format: ADME, organism-based; settings: in vivo, 15 s
[27] = system: Mus musculus; test: Biodistribution of [123I]- labeled compound in mice heart was determined after 1 min of administration; expressed in percent of injected dose per gram of organ; format: ADME, organism-based; settings: in vivo
[28] = system: Mus musculus; test: Biodistribution of [123I]- labeled compound in mice heart was determined after 2 min of administration; expressed in percent of injected dose per gram of organ; format: ADME, organism-based; settings: in vivo
[29] = system: Mus musculus; test: Biodistribution of [123I]- labeled compound in mice liver was determined after 5 min of administration; expressed in percent of injected dose per gram of organ; format: ADME, organism-based; settings: in vivo
[30] = system: Mus musculus; test: Biodistribution of [123I]- labeled compound in mice brain was determined after 15 sec of administration; expressed in percent of injected dose per gram of organ; format: ADME, organism-based; settings: in vivo, 15 s

Compound: O=C(O)CCOCCI
- Biodistribution [1]: 7.9%
- Biodistribution [2]: 4.2%
- Biodistribution [3]: 9%
- Biodistribution [4]: 12.7%
- Biodistribution [5]: 18.4%
- Biodistribution [6]: 10.9%
- Biodistribution [7]: 12.6%
- Biodistribution [8]: 8.8%
- Biodistribution [9]: 8.6%
- Biodistribution [10]: 11.3%
- Biodistribution [11]: 8.8%
- Biodistribution [12]: 13.2%
- Biodistribution [13]: 7.8%
- Biodistribution [14]: 7.1%
- Biodistribution [15]: 2.3%
- Biodistribution [16]: 8.5%
- Biodistribution [17]: 5.5%
- Biodistribution [18]: 12%
- Biodistribution [19]: 6.5%
- Biodistribution [20]: 4.7%
- Biodistribution [21]: 1.6%
- Biodistribution [22]: 4.1%
- Biodistribution [23]: 5.1%
- Biodistribution [24]: 2.4%
- Biodistribution [25]: 3.2%
- Biodistribution [26]: 17.8%
- Biodistribution [27]: 6.2%
- Biodistribution [28]: 5.3%
- Biodistribution [29]: 9.9%
- Biodistribution [30]: 5.5%
